Source: patent publication US10385103B2, “Cell-permeable (ICP)-SOCS3 recombinant protein and uses thereof” (CELLIVERY THERAPEUTICS, INC., priority 2014, dated 2019)

System: RAW 264.7 cells
Assay: Quantitative cell-permeability of FITC-labeled aMTD- or rPeptide-fused CRA recombinant proteins (flow cytometry)
Format: cell-based
Settings: for Relative Ratio to aMTD AVE: cell-permeability of rPeptide-fused CRA recombinant protein relative to average of 240 aMTDs
Source text: The aMTDs and rPeptides were fluorescently labeled and compared based on the critical factors for cell-permeability by using flow cytometry and confocal laser scanning microscopy (FIGS. 5 to 8). The cellular uptake of the peptide-fused non-functional cargo recombinant proteins could quantitatively be evaluated in flow cytometry, while confocal laser scanning microscopy allows intracellular uptake to be assessed visually. The analysis included recombinant proteins fused to a negative control [rP38] that has opposite characteristics (hydrophilic and aromatic sequence: […] NO: 952)) to the aMTDs (hydrophobic and aliphatic sequences). Relative cell-permeability (relative fold) of aMTDs to the negative control was also analyzed (Table 23 and FIG. 9). […] RAW 264.7 cells were treated with 10 μM FITC-labeled recombinant proteins for 1 hour at 37° C., washed three times with cold PBS, treated with 0.25% tripsin/EDTA (Sigma-Aldrich, St. Louis, Mo.) for 20 minutes at 37° C. to remove cell-surface bound proteins. Cell-permeability of these recombinant proteins were analyzed by flow cytometry (Guava, Millipore, Darmstadt, Germany) using the FlowJo cytometric analysis software (FIGS. 5 to 6).

[1] = cell-permeability of aMTD-fused CRA recombinant protein relative to negative control (A: rP38)
[2] = cell-permeability of aMTD-fused CRA recombinant protein relative to reference CPP (B: MTM12)
[3] = cell-permeability of aMTD-fused CRA recombinant protein relative to reference CPP (C: MTD85)
[4] = cell-permeability relative to negative control rP38 (A type), aMTD-fused CRA recombinant protein, 10 μM FITC-labeled, 1 hour, 37° C., RAW 264.7 cells
[5] = cell-permeability relative to reference CPP MTD85 (C type), aMTD-fused CRA recombinant protein, 10 μM FITC-labeled, 1 hour, 37° C., RAW 264.7 cells
[6] = cell-permeability relative to reference CPP MTM12 (B type), aMTD-fused CRA recombinant protein, 10 μM FITC-labeled, 1 hour, 37° C., RAW 264.7 cells
[7] = 10 μM FITC-labeled, 1 hour, 37° C., RAW 264.7 cells
[8] = relative cell-permeability of rPeptide vs reference A (not defined)
[9] = relative cell-permeability of rPeptide vs reference CPP B: MTM12
[10] = relative cell-permeability of rPeptide vs reference CPP C: MTD85

Substance | Relative Ratio (Fold) A [4] [Fold] | Relative Ratio (Fold) C [5] [Fold] | Relative Ratio (Fold) B [6] [Fold] | Relative Ratio to aMTD AVE [7] | also measured
1 (AAALAPVVLALP; Amino acid Sequence of aMTD1) [compound 1] |  |  |  |  | Relative Ratio (Fold) A [1]: 17.7 Fold; Relative Ratio (Fold) B [2]: 11.8 Fold; Relative Ratio (Fold) C [3]: 6.0 Fold
2 (AAAVPLLAVVVP; Amino acid Sequence of aMTD2) [compound 2] |  |  |  |  | Relative Ratio (Fold) A [1]: 40.9 Fold; Relative Ratio (Fold) B [2]: 27.2 Fold; Relative Ratio (Fold) C [3]: 13.8 Fold; Relative Ratio (Fold) A (relative cell-permeability of aMTD vs reference A (not defined)): 40.9 Fold; Relative Ratio (Fold) B (relative cell-permeability of aMTD vs reference CPP B: MTM12): 27.2 Fold; Relative Ratio (Fold) C (relative cell-permeability of aMTD vs reference CPP C: MTD85): 13.8 Fold
3 (AALLVPAAVLAP; Amino acid Sequence of aMTD3) [compound 3] |  |  |  |  | Relative Ratio (Fold) A [1]: 27.0 Fold; Relative Ratio (Fold) B [2]: 18.0 Fold; Relative Ratio (Fold) C [3]: 9.1 Fold
4 (ALALLPVAALAP; Amino acid Sequence of aMTD4) [compound 4] | 2.0 | 0.7 | 1.3 |  | 
5 (AAALLPVALVAP; Amino acid Sequence of aMTD5) [compound 5] | 3.1 | 1.0 | 2.1 |  | 
11 (VVALAPALAALP; Amino acid Sequence of aMTD11) [compound 11] |  |  |  |  | Relative Ratio (Fold) A [1]: 9.5 Fold; Relative Ratio (Fold) B [2]: 6.3 Fold; Relative Ratio (Fold) C [3]: 3.2 Fold
12 (LLAAVPAVLLAP; Amino acid Sequence of aMTD12) [compound 12] | 2.2 | 0.7 | 1.5 |  | 
13 (AAALVPVVALLP; Amino acid Sequence of aMTD13) [compound 13] | 7.0 | 2.4 | 4.7 |  | 
16 (NNSCTTYTNGSQ; Amino acid Sequence of rPeptide ID 16) [compound 16] |  |  |  | 0.08 | Relative Ratio (Fold) A [8]: 1.6 Fold; Relative Ratio (Fold) B [9]: 1.1 Fold; Relative Ratio (Fold) C [10]: 0.5 Fold
17 (GGCSAPQTTCSN; Amino acid Sequence of rPeptide ID 17) [compound 17] |  |  |  | 0.08 | 
18 (NYCCTPTTNGQS; Amino acid Sequence of rPeptide ID 18) [compound 18] |  |  |  | 0.10 | 
21 (AVALLPALLAVP; Amino acid Sequence of aMTD21) [compound 21] |  |  |  |  | Relative Ratio (Fold) A [1]: 18.9 Fold; Relative Ratio (Fold) B [2]: 12.6 Fold; Relative Ratio (Fold) C [3]: 6.4 Fold
24 (IALAAPALIVAP; Amino acid Sequence of aMTD24) [compound 24] | 2.3 | 0.8 | 1.6 |  | 
25 (IVAVAPALVALP; Amino acid Sequence of aMTD25) [compound 25] | 2.4 | 0.8 | 1.6 |  | 
26 (AAIALAAPLAIV; Amino acid Sequence of rPeptide ID 26) [compound 26] |  |  |  | 0.65 | 
29 (VLPPLPVLPVLP; Amino acid Sequence of rPeptide ID 29) [compound 29] |  |  |  | 0.07 | Relative Ratio (Fold) A [8]: 1.4 Fold; Relative Ratio (Fold) B [9]: 0.9 Fold; Relative Ratio (Fold) C [10]: 0.5 Fold
38 (YYNQSTCGGQCY; Amino acid Sequence of rPeptide ID 38) [compound 38] |  |  |  | 0.05 | 
39 (CYNTSPCTGCCY; Amino acid Sequence of rPeptide ID 39) [compound 39] |  |  |  | 0.29 | 

Substance | Relative Ratio (Fold) A [4] [Fold] | Relative Ratio (Fold) C [5] [Fold] | Relative Ratio (Fold) B [6] [Fold] | Relative Ratio to aMTD AVE [7] | also measured
43 (LLAAPLVVAAVP; Amino acid Sequence of aMTD43) [compound 43] | 2.1 | 0.7 | 1.4 |  | 
61 (VAALPVLLAALP; Amino acid Sequence of aMTD61) [compound 61] |  |  |  |  | Relative Ratio (Fold) A [1]: 31.2 Fold; Relative Ratio (Fold) B [2]: 20.8 Fold; Relative Ratio (Fold) C [3]: 10.5 Fold
62 (VALLAPVALAVP; Amino acid Sequence of aMTD62) [compound 62] | 1.4 | 0.5 | 0.9 |  | 
64 (AIVALPVAVLAP; Amino acid Sequence of aMTD64) [compound 64] |  |  |  |  | Relative Ratio (Fold) A [1]: 15.8 Fold; Relative Ratio (Fold) B [2]: 10.6 Fold; Relative Ratio (Fold) C [3]: 5.3 Fold
65 (IAIVAPVVALAP; Amino acid Sequence of aMTD65) [compound 65] | 3.0 | 1.0 | 2.0 |  | 
66 (AGVLGGPIMGVP; Amino acid Sequence of rPeptide ID 66) [compound 66] |  |  |  | 0.13 | 
67 (LDAEVPLADDVP; Amino acid Sequence of rPeptide ID 67) [compound 67] |  |  |  | 0.08 | Relative Ratio (Fold) A [8]: 1.5 Fold; Relative Ratio (Fold) B [9]: 0.9 Fold; Relative Ratio (Fold) C [10]: 0.5 Fold
68 (VAPVLPAAPLVP; Amino acid Sequence of rPeptide ID 68) [compound 68] |  |  |  | 0.32 | 
82 (AVVLAPVAAVLP; Amino acid Sequence of aMTD82) [compound 82] | 2.1 | 0.7 | 1.4 |  | 
83 (LAVAAPLALALP; Amino acid Sequence of aMTD83) [compound 83] | 1.4 | 0.5 | 0.9 |  | 
84 (AAVAAPLLLALP; Amino acid Sequence of aMTD84) [compound 84] | 1.5 | 0.5 | 1.0 |  | 
85 (LLVLPAAALAAP; Amino acid Sequence of aMTD85) [compound 85] | 1.9 | 0.7 | 1.3 |  | 
97 (ALLAAPPALLAL; Amino acid Sequence of rPeptide ID 97) [compound 97] |  |  |  | 0.41 | 
105 (LLALAPAALLAP; Amino acid Sequence of aMTD105) [compound 105] | 4.0 | 1.3 | 2.6 |  | 
113 (PVAVALLIAVPP; Amino acid Sequence of rPeptide ID 113) [compound 113] |  |  |  | 0.61 | 
121 (AIVALPALALAP; Amino acid Sequence of aMTD121) [compound 121] | 2.5 | 0.8 | 1.7 |  | 
124 (IAVALPALIAAP; Amino acid Sequence of aMTD124) [compound 124] |  |  |  |  | Relative Ratio (Fold) A [1]: 43.6 Fold; Relative Ratio (Fold) B [2]: 29.0 Fold; Relative Ratio (Fold) C [3]: 14.7 Fold
139 (TGSTNSPTCTST; Amino acid Sequence of rPeptide ID 139) [compound 139] |  |  |  | 0.17 | 
